Data from patent EP3714904B1, “IMINODIACETIC ACID SUBSTITUTED CYCLODEXTRINS AS POTENTIATORS OF BETA-LACTAM ANTIBIOTICS” (NATIONAL CENTER FOR SCIENTIFIC RESEARCH "DEMOKRITOS" (NCSRD), priority 2019, dated 2020).
Where two headings read alike, the source gives them in different places.

Columns and labels:
Acinetobacter baumannii = test: MIC of β-lactams alone or with 50 µM IDACYD against clinical isolates; type: cell-based; conditions: for MIC: Acinetobacter baumannii, alone
Description: (§1) Further the in-vitro inhibitory activity of IDACYDs was tested against highly resistant pathogens. Tables 3, 4 and 5 show the effect of IDACYDs using a collection of 36 highly resistant Gram negative strains (Table 2, Kirby-Bauer disc diffusion method) producing NDM, VIM and IMP type MBLs as well as 6 isolates expressing serine beta-lactamases (ESBLs, AmpCs). […] Clinical isolates co-expressing ESBLs and/or AmpC β-lactamases along with MBLs where re-sensitized to both imipenem and meropenem, as expected. Table 2: Collection of clinical isolates used for in-vitro evaluation

Serratia marcescens = test: as above; type: cell-based; conditions: isolate EUG-815 (VIM, CMY)
Description: as §1

Enterobacter gergoviae = test: as above; type: cell-based; conditions: for MIC: Pluralibacter gergoviae, alone
Description: as §1

Escherichia coli = test: as above; type: cell-based; conditions: for MIC: Escherichia coli, alone
Description: as §1

Providencia stuartii = test: as above; type: cell-based; conditions: for MIC: Providencia stuartii, alone
Description: as §1

Proteus mirabilis = test: as above; type: cell-based; conditions: for MIC: Proteus mirabilis, alone
Description: as §1

[1] = tested on: NDM producing K. pneumoniae clinical strain LA26; test: Murine sepsis model: 2-hour intervals treatment scheme; type: in vivo, CD-1 mice; conditions: for mice protected (survival): intraperitoneal, 140 hours
Description: Example 7. […] The animals were rendered neutropenic (<100 neutrophils/mm^3) by intraperitoneal injection of 150 and 100 mg/kg of cyclophosphamide at day -4 and day -1, respectively, before infection. […] The meropenem/ β-IDACYD combination was administrated in all dosing schemes simultaneously. […] Blood samples were taken 0, 6, 24 hours and 7 days after injection of a single dose of antibiotic (five infected animals for each timepoint) were serially diluted in normal saline (10^-1 to 10^-9) and plated on MH agar plates which were incubated for 16 hours at 37°C for determination of viable organisms. All mice that were alive were euthanised 7 days post infection and spleen and liver were harvested. The organs were placed into 1 mL of normal saline on ice and then homogenised. The organ homogenates were then serially diluted in normal saline (10^-1 to 10^-9) and plated on MH agar for CFU enumeration. Without therapy 90% of mice succumbed to the infection within 24 hours. […] Finally, the bacterial load in the spleen was relieved by 4.2 log10 compared to that of the antibiotic itself. In Fig.6 is shown the bacterial load (CFU/mL) (A) and survival percentage (B) of CD-1 mice infected with a lethal dose (10^7 CFU) of NDM-1 producing K. pneumoniae strain LA26. […] Treatment (initiated at 2 hours post infection) was given every 2h for a 24h period and blood was drawn 0 h, 6 h, 24 h and 140 h post treatment initiation. All groups were of n=10. Spleen and liver (C) from n=5 mice were also removed at 140 h post-treatment initiation the bacterial load [log (CFU/organ)] was determined. Error bars are indicative of SEM (n=2 replicates).

[2] = tested on: NDM-1 producing K. pneumoniae clinical strain LA 26; test: Murine sepsis model: single dose treatment scheme-1; type: in vivo, CD-1 mice
Description: Example 8. In-vivo murine sepsis model: Single dose treatment scheme-1: Neutropenic 7-8 weeks old CD-1 female mice weighing 29 to 32 grams were infected interperitoneally with a lethal dose (10^7 CFU) of the NDM-1 producing K. pneumoniae clinical strain LA 26 as described previously. […] The meropenem/ β-IDACYD combination was administrated in all dosing schemes simultaneously. Blood samples were taken 0, 6, 24 hours and 3 days after injection of a single dose of antibiotic (five infected animals for each timepoint) and were serially diluted in normal saline (10^-1 to 10^-9) and plated on MH agar plates which were incubated for 16 hours at 37 °C for determination of viable organisms. All mice were euthanised 3 days post infection and spleen and liver were harvested. Organs were placed into 1 mL of normal saline on ice and then homogenised. Organ homogenates were then serially diluted in normal saline (10^-1 to 10^-9) and plated on MH agar plates for CFU enumeration. In the absence of therapy 30% of mice remained alive 70 hours post infection. […] The bacterial burden in the blood 70 hours post treatment was relieved by 4.8log10 in the presence of 120 mg/kg of β-IDACYD compared to that of the antibiotic monotherapy. […] In Fig. 7 is shown the bacterial load (CFU/mL) and survival percentage of CD-1 mice infected with a lethal dose (10^7 CFU) of NDM-1 producing K. pneumoniae strain LA26. […] Treatment was given in a form of a single shot 2h after infection and blood was drawn 0h, 6h, 24h and 70h post treatment initiation. All groups were of n=10. Error bars are indicative of SEM (n=2 replicates).

[3] = tested on: NDM-1 producing K. pneumoniae strain LA26; test: Murine sepsis model: single dose treatment scheme-2; type: in vivo, CD-1 mice
Description: Example 9. […] Blood samples were collected at 0, 6 and 24 hours after injection of a single dose of antibiotic (4 infected animals for each timepoint), were serially diluted in normal saline (10^-1 to 10^-9) and plated on MH agar plates which were incubated for 16 hours at 37°C for determination of viable organisms. […] The resulting 3.0log10 reduction in the blood bacterial load in the presence of 120 mg/kg of the inhibitor β-IDACYD compared to the antibiotic itself confirmed the high repotentiation abilities of the inhibitor to carbapenems even for suboptimal antibiotic doses. […] Treatment was given in a form of a single shot 2h after infection and blood was drawn 0h, 6h and 24h post treatment initiation. All groups were of n=10. Error bars are indicative of SEM (n=2 replicates).

[4] = single dose 30 mg/kg meropenem + 120 mg/kg β-IDACYD

C[C@@H](O)[C@H]1C(=O)N2C(C(=O)O)=C(S[C@@H]3CN[C@H](C(=O)N(C)C)C3)[C@H](C)[C@H]12 [Meropenem, reference compound]
MIC (Acinetobacter baumannii; read-out: Meropenem MIC, isolate TZAN-40 (VIM, OXA-58)): 4 µg/mL
MIC (Acinetobacter baumannii; read-out: Meropenem MIC, isolate TZAN-42 (VIM, OXA-58)): 32 µg/mL
MIC (Serratia marcescens; Serratia marcescens, read-out: Meropenem MIC, alone): 256 µg/mL
MIC (Enterobacter gergoviae; read-out: Meropenem MIC, isolate AK-5227 (VIM, CMY)): 2 µg/mL
MIC (Enterobacter gergoviae; read-out: Meropenem MIC, isolate AK-5240 (VIM, CMY)): 1 µg/mL
MIC (Escherichia coli; read-out: Meropenem MIC, isolate TZAN-116 (VIM)): 1 µg/mL
MIC (Escherichia coli; read-out: Meropenem MIC, isolate TZAN-541 (VIM)): 2 µg/mL
MIC (Providencia stuartii; read-out: Meropenem MIC, isolate ALX- 21 (VIM, VEB)): 2 µg/mL
MIC (Providencia stuartii; read-out: Meropenem MIC, isolate ALX-27 (VIM)): 2 µg/mL
MIC (Providencia stuartii; read-out: Meropenem MIC, isolate ESDY-4559 (VIM)): 4 µg/mL
MIC (Providencia stuartii; read-out: Meropenem MIC, isolate ESDY-4563 (VIM, VEB)): 2 µg/mL
MIC (Proteus mirabilis; read-out: Meropenem MIC, Table 5, Pr m ESDY 15315 (VIM-1, CMY)): 16 µg/mL
MIC (Proteus mirabilis; read-out: Meropenem MIC, isolate ALX-13 (VIM, VEB)): 32 µg/mL
MIC (Proteus mirabilis; read-out: Meropenem MIC, isolate ESDY-17 (VIM, CMY)): 0.25 µg/mL
MIC (Proteus mirabilis; read-out: Meropenem MIC, isolate ESDY-15184 (VIM, CMY)): 2 µg/mL
MIC (Proteus mirabilis; read-out: Meropenem MIC, isolate ESDY-15315 (VIM, CMY)): 4 µg/mL
mice protected (survival) ([1]; meropenem monotherapy 30 mg/kg every 2 h for 24 h): 80%
survival ([2]; meropenem monotherapy, single dose 30 mg/kg, 70 hours post infection): 30%
protection from death ([3]; meropenem monotherapy, single dose 10 mg/kg, within 48 h): unable to protect any mice from death

CO[C@@H]1[C@@H](OC)[C@H]2O[C@H]3[C@H](OC)[C@@H](OC)[C@@H](O[C@H]4[C@H](OC)[C@@H](OC)[C@@H](O[C@H]5[C@H](OC)[C@@H](OC)[C@@H](O[C@H]6[C@H](OC)[C@@H](OC)[C@@H](O[C@H]7[C@H](OC)[C@@H](OC)[C@@H](O[C@H]8[C@H](OC)[C@@H](OC)[C@@H](O[C@@H]1[C@@H](CN(CC(=O)O)CC(=O)O)O2)O[C@@H]8CN(CC(=O)O)CC(=O)O)O[C@@H]7CN(CC(=O)O)CC(=O)O)O[C@@H]6CN(CC(=O)O)CC(=O)O)O[C@@H]5CN(CC(=O)O)CC(=O)O)O[C@@H]4CN(CC(=O)O)CC(=O)O)O[C@@H]3CN(CC(=O)O)CC(=O)O [β-IDACYD]
Imipenem /50µM β-IDACYD MIC (Acinetobacter baumannii; isolate TZAN-40 (VIM, OXA-58)): 0.25 µg/mL
Meropenem /50µM β-IDACYD MIC (Acinetobacter baumannii; isolate TZAN-40 (VIM, OXA-58)): 2 µg/mL
Imipenem /50µM β-IDACYD MIC (Acinetobacter baumannii; isolate TZAN-42 (VIM, OXA-58)): 2 µg/mL
Meropenem /50µM β-IDACYD MIC (Acinetobacter baumannii; isolate TZAN-42 (VIM, OXA-58)): 8 µg/mL
Ceftazidime/ 50µM β-IDACYD MIC (Serratia marcescens): <0.25 µg/mL
Imipenem /50µM β-IDACYD MIC (Serratia marcescens): <0.125 µg/mL
Meropenem /50µM β-IDACYD MIC (Serratia marcescens): <0.25 µg/mL
Imipenem /50µM β-IDACYD MIC (Enterobacter gergoviae; isolate AK-5227 (VIM, CMY)): 1 µg/mL
Meropenem /50µM β-IDACYD MIC (Enterobacter gergoviae; isolate AK-5227 (VIM, CMY)): <0.25 µg/mL
Imipenem /50µM β-IDACYD MIC (Enterobacter gergoviae; isolate AK-5240 (VIM, CMY)): <0.125 µg/mL
Meropenem /50µM β-IDACYD MIC (Enterobacter gergoviae; isolate AK-5240 (VIM, CMY)): <0.25 µg/mL
Ceftazidime/ 50µM β-IDACYD MIC (Escherichia coli; isolate TZAN-116 (VIM)): <0.25 µg/mL
Imipenem /50µM β-IDACYD MIC (Escherichia coli; isolate TZAN-116 (VIM)): <0.125 µg/mL
Meropenem /50µM β-IDACYD MIC (Escherichia coli; isolate TZAN-116 (VIM)): <0.25 µg/mL
Imipenem /50µM β-IDACYD MIC (Escherichia coli; isolate TZAN-541 (VIM)): <0.125 µg/mL
Meropenem /50µM β-IDACYD MIC (Escherichia coli; isolate TZAN-541 (VIM)): <0.25 µg/mL
Ceftazidime/ 50µM β-IDACYD MIC (Providencia stuartii; isolate ALX- 21 (VIM, VEB)): 16 µg/mL
Imipenem /50µM β-IDACYD MIC (Providencia stuartii; isolate ALX- 21 (VIM, VEB)): 0.25 µg/mL
Meropenem /50µM β-IDACYD MIC (Providencia stuartii; isolate ALX- 21 (VIM, VEB)): <0.25 µg/mL
Imipenem /50µM β-IDACYD MIC (Providencia stuartii; isolate ALX-27 (VIM)): <0.125 µg/mL
Meropenem /50µM β-IDACYD MIC (Providencia stuartii; isolate ALX-27 (VIM)): <0.25 µg/mL
Ceftazidime/ 50µM β-IDACYD MIC (Providencia stuartii; isolate ESDY-4559 (VIM)): <0.25 µg/mL
Imipenem /50µM β-IDACYD MIC (Providencia stuartii; isolate ESDY-4559 (VIM)): <0.125 µg/mL
Meropenem /50µM β-IDACYD MIC (Providencia stuartii; isolate ESDY-4559 (VIM)): <0.25 µg/mL
Imipenem /50µM β-IDACYD MIC (Providencia stuartii; isolate ESDY-4563 (VIM, VEB)): <0.125 µg/mL
Meropenem /50µM β-IDACYD MIC (Providencia stuartii; isolate ESDY-4563 (VIM, VEB)): <0.25 µg/mL
Imipenem /50µM β-IDACYD MIC (Proteus mirabilis; isolate ALX-13 (VIM, VEB)): 1 µg/mL
Meropenem /50µM β-IDACYD MIC (Proteus mirabilis; isolate ALX-13 (VIM, VEB)): 0.5 µg/mL
Imipenem /50µM β-IDACYD MIC (Proteus mirabilis; isolate ESDY-17 (VIM, CMY)): <0.125 µg/mL
Meropenem /50µM β-IDACYD MIC (Proteus mirabilis; isolate ESDY-17 (VIM, CMY)): <0.25 µg/mL
Ceftazidime/ 50µM β-IDACYD MIC (Proteus mirabilis; isolate ESDY-15184 (VIM, CMY)): <0.25 µg/mL
Imipenem /50µM β-IDACYD MIC (Proteus mirabilis; isolate ESDY-15184 (VIM, CMY)): 0.125 µg/mL
Meropenem /50µM β-IDACYD MIC (Proteus mirabilis; isolate ESDY-15184 (VIM, CMY)): <0.25 µg/mL
Imipenem /50µM β-IDACYD MIC (Proteus mirabilis; isolate ESDY-15315 (VIM, CMY)): <0.125 µg/mL
Meropenem /50µM β-IDACYD MIC (Proteus mirabilis; isolate ESDY-15315 (VIM, CMY)): <0.25 µg/mL
mice protected (survival) ([1]; 30 mg/kg meropenem + 20 mg/kg β-IDACYD every 2 h for 24 h): 90%
reduction of the bacterial load in the spleen compared to the antibiotic itself ([1]; 30 mg/kg meropenem + 20 mg/kg β-IDACYD every 2 h for 24 h, 140 h): 4.2 log10
reduction of the bacterial load in blood compared to meropenem monotherapy ([1]; 30 mg/kg meropenem + 20 mg/kg β-IDACYD every 2 h for 24 h, 140 hours post treatment initiation): 4.0 log10
reduction of bacterial load in the liver [2, 4]: 1.4 log10
reduction of bacterial load in the spleen [2, 4]: 3.8 log10
mice rescued (survival) ([2]; single dose 30 mg/kg meropenem + 120 mg/kg β-IDACYD, 70 hours): 60%
reduction of bacterial burden in the blood compared to antibiotic monotherapy ([2]; single dose 30 mg/kg meropenem + 120 mg/kg β-IDACYD, 70 hours post treatment): 4.8 log10
reduction in the blood bacterial load compared to the antibiotic itself ([3]; single dose 10 mg/kg meropenem + 120 mg/kg β-IDACYD): 3.0 log10
mice rescued (survival) ([3]; single dose 10 mg/kg meropenem + 120 mg/kg β-IDACYD, within 48 h): 50%
